# Source: patent US8937073B2, “Disubstituted tetrahydrofuranyl compounds and their use as B1-receptor antagonists” (Boehringer Ingelheim International GmbH, priority 2010, dated 2015)
# Biological target: T1, cynomolgus B1 receptor (Macaca fascicularis, UniProt Q3BCU0)
# T1 construct: expressed in transfected cells; host or cells: CHO cells
# T1 sequence (Q3BCU0 1-352): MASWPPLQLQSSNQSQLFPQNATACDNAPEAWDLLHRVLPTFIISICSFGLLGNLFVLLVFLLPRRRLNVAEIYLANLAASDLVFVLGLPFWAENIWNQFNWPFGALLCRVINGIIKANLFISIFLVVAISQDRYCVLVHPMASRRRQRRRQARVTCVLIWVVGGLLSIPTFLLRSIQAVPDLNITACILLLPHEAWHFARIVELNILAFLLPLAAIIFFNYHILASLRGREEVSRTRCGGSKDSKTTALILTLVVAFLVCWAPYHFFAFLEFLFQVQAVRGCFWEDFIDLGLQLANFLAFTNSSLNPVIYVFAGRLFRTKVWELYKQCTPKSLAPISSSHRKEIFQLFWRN
# Assay: cynoBK1-receptor binding assay
# Conditions: homogenate of CHO cells expressing the cynomolgus B1 receptor; radioligand 0.5 to 5.0 nM kallidine (DesArg10,Leu9), [3,4-Prolyl-3,43H(N)]; 60-180 minutes at ambient temperature
# Procedure: Description of the Method of Binding the cynoBK1-Receptor
# CHO cells that express the cynomolgus B1 receptor are cultivated in “HAM′S F-12 Medium”. The medium is removed from confluent cultures, the cells are washed with PBS buffer, scraped off or detached using Versene and isolated by centrifuging. Then the cells are homogenised in suspension, the homogenate is centrifuged and resuspended. After the protein content has been determined 200 μl of the homogenate (50 to 250 μg protein/assay) are incubated for 60-180 minutes at ambient temperature with 0.5 to 5.0 nM kallidine (DesArg10,Leu9), [3,4-Prolyl-3,43H(N)] and increasing concentrations of the test substance in a total volume of 250 μl. The incubation is stopped by rapid filtration through GF/B glass fibre filters that have been pre-treated with polyethyleneimine (0.3%). The radioactivity bound to the protein is measured with a TopCount NXT. The radioactivity bound in the presence of 1.0 μM kallidine (DesArg10) is defined as non-specific binding. The concentration binding curve may be analysed using computer-aided non-linear curve fitting to determine the corresponding Ki value for the test substance.
# Test Results of the cynoBK1-Receptor Binding Assay: […]
row,Compound,Ki [nM]
1,(S)-5-amino-N-(3-{[3-chloro-5-(4-methoxy-2-trifluoromethyl-phenylamino)-pyridin-2-yl-methyl]-carbamoyl}-tetrahydrofuran-3-yl)-nicotinamide [Example 6],18
2,COc1ccc(Nc2ccc(CNC(=O)[C@]3(NC(=O)c4cn[nH]c(=O)c4)CCOC3)c(F)c2)c(C(F)(F)F)c1 [Example 21],1.6
3,"(S)-6-oxo-1,6-dihydro-pyridazine-4-carboxylic acid-{3-[2-fluoro-4-(4-methoxy-2-trifluoromethyl-phenylamino)-benzylcarbamoyl]-tetrahydrofuran-3-yl}-amide [Example 1]",1
4,(S)-5-amino-N-(3-{[3-fluoro-5-(4-methoxy-2-trifluoromethyl-phenylamino)-pyridin-2-ylmethyl]-carbamoyl}-tetrahydrofuran-3-yl)-nicotinamide [Example 3],4.7
5,(S)-5-amino-N-{3-[4-(4-methoxy-2-trifluoromethyl-phenylamino)-benzylcarbamoyl]-tetrahydrofuran-3-yl}-nicotinamide [Example 4],3.6
